Test results published in patent US20260226067A1, “MODULATORS OF TRPML, THEIR COMPOSITIONS AND METHODS OF USE” (Caraway Therapuetics, Inc., priority 2023, published 2026).

Key:
Type in all cases: cell-based
Human TRPML2 = target: T1, Human TRPML2 (Homo sapiens, UniProt Q8IZK6); assay: Fluorescent TRPML2 assay (as for TRPML1); conditions: as TRPML1 assay with TRPML2 subtype; read-out: Human TRPML 2 EC50
T1 construct: expressed in transfected cells
T1 sequence (Q8IZK6 1-566): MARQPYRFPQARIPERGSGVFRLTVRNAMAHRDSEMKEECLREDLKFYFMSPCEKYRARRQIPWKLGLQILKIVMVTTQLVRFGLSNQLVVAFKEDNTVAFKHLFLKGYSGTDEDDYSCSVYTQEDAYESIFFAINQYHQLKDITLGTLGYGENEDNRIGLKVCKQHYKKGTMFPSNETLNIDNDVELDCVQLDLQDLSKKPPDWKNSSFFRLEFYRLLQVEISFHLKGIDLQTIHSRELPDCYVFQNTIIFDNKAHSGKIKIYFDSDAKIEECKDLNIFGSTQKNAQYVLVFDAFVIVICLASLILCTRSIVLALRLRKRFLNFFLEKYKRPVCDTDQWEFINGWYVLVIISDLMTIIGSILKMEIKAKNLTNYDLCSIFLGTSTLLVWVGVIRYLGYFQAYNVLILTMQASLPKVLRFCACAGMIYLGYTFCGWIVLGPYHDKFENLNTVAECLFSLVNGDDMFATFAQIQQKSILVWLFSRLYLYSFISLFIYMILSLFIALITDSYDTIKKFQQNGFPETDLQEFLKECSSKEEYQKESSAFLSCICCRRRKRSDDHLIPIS
Procedure: (§1) HEK-293 Trex cells were stably transfected with a construct consisting of the human coding sequence for TRPML1 cloned into the tet-inducible plasmid pCDNA5 T/O. Mutations were introduced into the TRPML1 sequence to facilitate expression on the cell surface (Silvia Vergarajauregui, Rosa Puertollano Traffic. 2006 March; 7(3): 337-353). Briefly, the cells are cultured in 150 mm round tissue culture dishes containing 20 mL of media. The day before the assay the cells are rinsed with DPBS-Ca-Mg and then treated briefly with Trypsin-EDTA. The Trypsin-EDTA is diluted with growth media, and cells are counted. 38×10^6 cells are re-plated into 150 mm round tissue culture dishes in media containing 0.5 ug/mL doxycycline to induce expression of hTRPML1.
(§2) The day of the experiment cells are lifted from the plates as above and collected by centrifugation. The cells are then suspended in dye loading buffer consisting of Ringer's solution supplemented with 0.1% Pluronic Acid and 1 micromolar Fluo4-AM dye. Cells are loaded for ~60 minutes in the dark with occasional mixing. The cells are collected by centrifugation, the loading media aspirated, and the cells resuspended in 25 mL Ringer's solution and incubated ~60 minutes in the dark. The cells are again collected by centrifugation, rinsed in Ringer's Solution and resuspended to 0.2×10^6 cells/mL in modified Ringer's solution containing 10 mM calcium.
(§3) Compounds are dissolved to a concentration of 10 millimolar with DMSO. Compound plates are created by dispensing compounds into 384 well black wall clear bottom plates (Greiner 781091). Positive and negative controls are included on each plate. Typically, different amounts of each compound are tested ranging from 100 nanoMoles (20 micromolar final concentration) decreasing in half-log steps to 31 picoMoles (6 nanomolar final concentration). Each concentration is typically tested in triplicate.
(§4) 50 microliters of dye-loaded cells are dispensed into each well of the compound assay plate created above. The fluorescence in each well is then determined with an excitation wavelength of 480 nm and an emission wavelength of 540 nm using either a Molecular Devices SpectraMax multimode plate reader or a Hamamatsu FDSS/uCell plate imager.
(§5) The resulting fluorescence for each well is exported as an ascii file and loaded into our LIMS for analysis. The percent activity of each compound at each concentration is determined by comparison to the positive and negative control wells included in each plate.
(§6) Assays for TRPML2 and TRPML3 were performed as above for TRPML1, by substituting the appropriate TRPML2 or TRPML3 subtype for the TRPML1.
(§7) EC50 values were calculated using a non-linear regression of Prism. In the table, “A” indicates an EC50 of less than 100 nM, “B” indicates an EC50 range from 100 nM to 500 nM; “C” indicates an EC50 range from 500 nM to 2 μM; and “D” indicates an EC50 greater than 2 μM.

human TRPML1 = human TRPML1 (Homo sapiens, UniProt Q9GZU1); assay: Fluorescent TRPML1 assay (Fluo4-AM calcium fluorescence); conditions: HEK-293 Trex cells expressing hTRPML1, Fluo4-AM fluorescence; read-out: Human TRPML 1 EC50
Procedure: as §1, §2, §3, §4, §5, §7

Human TRPML3 = target: T2, Human TRPML3 (Homo sapiens, UniProt Q8TDD5); assay: Fluorescent TRPML3 assay (as for TRPML1); conditions: as TRPML1 assay with TRPML3 subtype; read-out: Human TRPML 3 EC50
T2 construct: expressed in transfected cells
T2 sequence (Q8TDD5 1-553): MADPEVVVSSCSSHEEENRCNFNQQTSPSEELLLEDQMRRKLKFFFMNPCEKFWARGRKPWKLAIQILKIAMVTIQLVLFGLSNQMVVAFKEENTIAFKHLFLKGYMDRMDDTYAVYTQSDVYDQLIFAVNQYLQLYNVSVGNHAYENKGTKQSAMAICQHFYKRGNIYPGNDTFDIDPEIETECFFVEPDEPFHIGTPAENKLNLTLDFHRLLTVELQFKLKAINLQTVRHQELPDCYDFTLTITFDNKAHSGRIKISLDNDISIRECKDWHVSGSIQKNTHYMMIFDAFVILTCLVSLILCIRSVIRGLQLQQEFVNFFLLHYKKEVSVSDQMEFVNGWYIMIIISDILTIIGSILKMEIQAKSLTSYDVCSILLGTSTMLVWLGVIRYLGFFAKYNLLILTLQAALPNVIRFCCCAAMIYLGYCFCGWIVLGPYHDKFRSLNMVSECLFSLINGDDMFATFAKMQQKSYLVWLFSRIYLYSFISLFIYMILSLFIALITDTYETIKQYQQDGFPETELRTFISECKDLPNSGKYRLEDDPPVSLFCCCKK
Procedure: as §1, §2, §3, §4, §5, §6, §7

human TRPML1, sequence (Q9GZU1 whole entry L15A/L16A/L577A/L578A, form open): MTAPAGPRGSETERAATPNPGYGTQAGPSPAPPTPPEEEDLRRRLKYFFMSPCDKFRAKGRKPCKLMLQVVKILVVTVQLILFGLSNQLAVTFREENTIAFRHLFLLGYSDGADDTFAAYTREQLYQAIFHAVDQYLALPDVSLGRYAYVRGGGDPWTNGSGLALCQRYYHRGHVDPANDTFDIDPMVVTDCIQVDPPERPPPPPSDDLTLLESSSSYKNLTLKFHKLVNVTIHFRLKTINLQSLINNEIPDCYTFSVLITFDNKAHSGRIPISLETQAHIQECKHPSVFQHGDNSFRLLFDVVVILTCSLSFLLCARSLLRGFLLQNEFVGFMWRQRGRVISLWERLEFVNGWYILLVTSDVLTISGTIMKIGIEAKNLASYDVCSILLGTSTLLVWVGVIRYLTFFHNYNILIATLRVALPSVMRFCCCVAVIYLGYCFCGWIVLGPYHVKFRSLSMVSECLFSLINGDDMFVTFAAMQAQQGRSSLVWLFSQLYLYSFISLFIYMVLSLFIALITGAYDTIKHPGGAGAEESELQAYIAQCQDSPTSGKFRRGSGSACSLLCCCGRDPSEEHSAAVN

EC50 (Human TRPML2)	EC50 (human TRPML1)	EC50 (Human TRPML3)	Structure (SMILES)
100 to 500 nM	< 100 nM	< 100 nM	C[C@@H]1CN(c2ncnc3c2c(N2CCC2)cn3-c2cc(C#N)ccn2)CCN1C(=O)c1ccccc1 [Compound 101, (R)-2-(5-(azetidin-1-yl)-4-(4-benzoyl-3-methylpiperazin-1-yl)-7H-pyrrolo[2,3-d]pyrimidin-7-yl)isonicotinonitrile]
> 2000 nM	< 100 nM	100 to 500 nM	C[C@@H]1CN(c2ncnc3c2c(C2CC2)cn3-c2cc(C#N)ccn2)[C@@H](C)CN1C(=O)c1ccccc1 [Compound 102, 2-(4-((2S,5R)-4-benzoyl-2,5-dimethylpiperazin-1-yl)-5-cyclopropyl-7H-pyrrolo[2,3-d]pyrimidin-7-yl)isonicotinonitrile]
500 to 2000 nM		< 100 nM	C[C@@H]1CN(c2ncnc3c2c(C(F)(F)F)cn3-c2cc(C#N)ccn2)[C@@H](C)CN1C(=O)c1ccccc1 [Compound 103, 2-(4-((2S,5R)-4-benzoyl-2,5-dimethylpiperazin-1-yl)-5-(trifluoromethyl)-7H-pyrrolo[2,3-d]pyrimidin-7-yl)isonicotinonitrile]
		100 to 500 nM	Cc1cn(-c2cc(C#N)ccn2)c2ncnc(N3C[C@@H](C)N(C(=O)c4ccccc4)C[C@@H]3C)c12 [Compound 104, 2-(4-((2S,5R)-4-benzoyl-2,5-dimethylpiperazin-1-yl)-5-methyl-7H-pyrrolo[2,3-d]pyrimidin-7-yl)isonicotinonitrile]
> 2000 nM	< 100 nM	500 to 2000 nM	C[C@@H]1CN(c2ncnc3c2c(C2CC2)cn3-c2cccc(F)c2)[C@@H](C)CN1C(=O)c1ccccc1 [Compound 105, ((2R,5S)-4-(5-cyclopropyl-7-(3-fluorophenyl)-7H-pyrrolo[2,3-d]pyrimidin-4-yl)-2,5-dimethylpiperazin-1-yl)(phenyl)methanone]
> 2000 nM	< 100 nM	500 to 2000 nM	C[C@@H]1CN(c2ncnc3c2c(C(F)(F)F)cn3-c2cccc(F)c2)[C@@H](C)CN1C(=O)c1ccccc1 [Compound 106, ((2R,5S)-4-(7-(3-fluorophenyl)-5-(trifluoromethyl)-7H-pyrrolo[2,3-d]pyrimidin-4-yl)-2,5-dimethylpiperazin-1-yl)(phenyl)methanone]
100 to 500 nM	< 100 nM	100 to 500 nM	C[C@@H]1CN(c2ncnc3c2c(N2CCC2)cn3-c2cc(C#N)ccn2)[C@@H](C)CN1C(=O)c1ccccc1 [Compound 107, 2-(5-(azetidin-1-yl)-4-((2S,5R)-4-benzoyl-2,5-dimethylpiperazin-1-yl)-7H-pyrrolo[2,3-d]pyrimidin-7-yl)isonicotinonitrile]
500 to 2000 nM	< 100 nM	500 to 2000 nM	C[C@@H]1CN(c2ncnc3c2c(N2CCC2)cn3-c2cccc(F)c2)[C@@H](C)CN1C(=O)c1ccccc1 [Compound 108, ((2R,5S)-4-(5-(azetidin-1-yl)-7-(3-fluorophenyl)-7H-pyrrolo[2,3-d]pyrimidin-4-yl)-2,5-dimethylpiperazin-1-yl)(phenyl)methanone]
100 to 500 nM	< 100 nM	< 100 nM	C[C@@H]1CN(c2ncnc3c2c(-c2ccccc2F)cn3-c2cc(C#N)ccn2)[C@@H](C)CN1C(=O)c1ccccc1 [Compound 109, 2-(4-((2S,5R)-4-benzoyl-2,5-dimethylpiperazin-1-yl)-5-(2-fluorophenyl)-7H-pyrrolo[2,3-d]pyrimidin-7-yl)isonicotinonitrile]
100 to 500 nM	< 100 nM	100 to 500 nM	C[C@@H]1CN(c2ncnc3c2c(C2CCC2)cn3-c2cc(C#N)ccn2)[C@@H](C)CN1C(=O)c1ccccc1 [Compound 110, 2-(4-((2S,5R)-4-benzoyl-2,5-dimethylpiperazin-1-yl)-5-cyclobutyl-7H-pyrrolo[2,3-d]pyrimidin-7-yl)isonicotinonitrile]
	100 to 500 nM	500 to 2000 nM	C[C@@H]1CN(c2ncnc3c2c(C2CCC2)cn3-c2cccc(F)c2)[C@@H](C)CN1C(=O)c1ccccc1 [Compound 111, ((2R,5S)-4-(5-cyclobutyl-7-(3-fluorophenyl)-7H-pyrrolo[2,3-d]pyrimidin-4-yl)-2,5-dimethylpiperazin-1-yl)(phenyl)methanone]
500 to 2000 nM	100 to 500 nM	100 to 500 nM	Cc1ccccc1C(=O)N1C[C@H](C)N(c2ncnc3c2c(N2CCC2)cn3-c2cc(C#N)ccn2)C[C@H]1C [Compound 112, 2-(5-(azetidin-1-yl)-4-((2S,5R)-2,5-dimethyl-4-(2-methylbenzoyl)piperazin-1-yl)-7H-pyrrolo[2,3-d]pyrimidin-7-yl)isonicotinonitrile]
100 to 500 nM	100 to 500 nM	500 to 2000 nM	C[C@@H]1CN(c2ncnc3c2c(N2CCC2)cn3-c2cc(C#N)ccn2)[C@@H](C)CN1C(=O)c1ccccc1F [Compound 113, 2-(5-(azetidin-1-yl)-4-((2S,5R)-4-(2-fluorobenzoyl)-2,5-dimethylpiperazin-1-yl)-7H-pyrrolo[2,3-d]pyrimidin-7-yl)isonicotinonitrile]
100 to 500 nM	100 to 500 nM	100 to 500 nM	C[C@@H]1CN(c2ncnc3c2c(N2CCC2)cn3-c2cc(C#N)ccn2)[C@@H](C)CN1C(=O)c1cccc(F)c1 [Compound 114, 2-(5-(azetidin-1-yl)-4-((2S,5R)-4-(3-fluorobenzoyl)-2,5-dimethylpiperazin-1-yl)-7H-pyrrolo[2,3-d]pyrimidin-7-yl)isonicotinonitrile]
		< 100 nM	C[C@@H]1CN(c2ncnc3c2c(C(F)(F)F)cn3-c2cc(C#N)ccn2)CCN1C(=O)c1ccccc1 [Compound 115, (R)-2-(4-(4-benzoyl-3-methylpiperazin-1-yl)-5-(trifluoromethyl)-7H-pyrrolo[2,3-d]pyrimidin-7-yl)isonicotinonitrile]
		500 to 2000 nM	C[C@H]1CN(C(=O)c2ccccc2)CCN1c1ncnc2c1c(C(F)(F)F)cn2-c1cc(C#N)ccn1 [Compound 117, (S)-2-(4-(4-benzoyl-2-methylpiperazin-1-yl)-5-(trifluoromethyl)-7H-pyrrolo[2,3-d]pyrimidin-7-yl)isonicotinonitrile]
	100 to 500 nM	500 to 2000 nM	C[C@@H]1CN(c2ncnc3c2c(-c2ccccn2)cn3-c2cc(C#N)ccn2)[C@@H](C)CN1C(=O)c1ccccc1 [Compound 118, 2-(4-((2S,5R)-4-benzoyl-2,5-dimethylpiperazin-1-yl)-5-(pyridin-2-yl)-7H-pyrrolo[2,3-d]pyrimidin-7-yl)isonicotinonitrile]
